Experimental data: patent US20100160369A1, “S1P1 Agonists and Methods of Making And Using” (EXELIXIS, INC., priority 2008, published 2010)
pEC50: −log10 of the molar value.

biological target: S1P1 (Homo sapiens, UniProt P21453); experiment: CNG cAMP Assay (Assay 1); format: cell-based; design: host or cells: HEK293 cells expressing the CNG channel; conditions: read-out: Assay 1 EC50
Experimental: Frozen HEK293 cells expressing the CNG channel and S1P1 (BD Biosciences, San Jose, Calif.) were thawed and plated into the wells of a black, clear bottom, 384-well CellBind plate (Corning, Corning, N.Y.) at 14,000 cells per well. HEK293 cells expressing the CNG channel and CB1 (BD Biosciences) were cultured and plated under the same conditions. The cells were incubated for 16 h at 37° C. in complete DMEM medium (Invitrogen Carlsbad, Calif.) containing 10% FBS (HyClone Logan, Utah), 250 μg/mL geneticin (Invitrogen), and 1 μg/mL puromycin (Sigma-Aldrich, St. Louis, Mo.). A membrane potential dye (BD Biosciences) was added and the plates were incubated for 2-2.5 h at room temperature.
Test compounds were tested at maximum concentrations of 10 μM. Compounds were diluted in DMSO (10 concentration points, 3-fold each) and added to the assay plate at final DMSO concentrations of 1.8%. For each compound, there were duplicate assay plates and each assay plate had duplicate wells per concentration point. Test compounds were added to the cells in a DPBS solution containing 25 μM Ro 20-1724 (Sigma-Aldrich), 500 nM of the A2b receptor agonist NECA (Sigma-Aldrich) and 10 nM (EC95) of S1P (Avanti Alabaster, Ala.) and incubated for 90 min. The assay plate was read before compound addition (T0) and after the 90 min incubation (T90) using an EnVision plate reader (PerkinElmer, Waltham, Mass.) at an excitation wavelength of 350 nm and an emission wavelength of 590 nm. The T90/T0 ratio was determined for each concentration of the test compounds. The percent agonist activity was determined as [(test compound−DMSO alone control)/(NECA alone control−DMSO alone control)*100]. The percent activities were plotted against compound concentration to determine EC50 using XLFit (IDBS, Alameda, Calif.). The control used for calculating rEC50 in the S1P1 CNG agonist assay was DMSO.
Assay 1 is the CNG cAMP Assay as described in Biological Example 1. Assay 2a and 2b are the Tango™ β-arrestin Recruitment Assay in HEK293 and U2OS cells, respectively, as described in Biological Example 2. Assay 3a is the hS1P1R GTPγS Binding Assay as described in Biological Example 3. Assay 3b is the GTP-Eu Binding Assay as described in Biological Example 3. EC50's were measured unless otherwise noted. […] In the table, “nt” means the Compound was not tested and “no” means the compound was tested but had no measurable activity under the assay conditions employed.

Chain of S1P1 (P21453 whole entry): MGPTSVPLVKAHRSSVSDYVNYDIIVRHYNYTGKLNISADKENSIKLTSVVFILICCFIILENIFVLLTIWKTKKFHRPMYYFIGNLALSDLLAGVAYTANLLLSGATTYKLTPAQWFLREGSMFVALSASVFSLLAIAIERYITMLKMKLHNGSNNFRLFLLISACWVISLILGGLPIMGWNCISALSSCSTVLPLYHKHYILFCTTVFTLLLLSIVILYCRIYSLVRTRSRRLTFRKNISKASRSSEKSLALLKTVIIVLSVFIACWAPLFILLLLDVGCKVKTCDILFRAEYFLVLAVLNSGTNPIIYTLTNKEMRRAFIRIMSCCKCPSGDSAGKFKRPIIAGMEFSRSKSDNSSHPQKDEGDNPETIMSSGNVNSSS

| Compound | pEC50 |
| --- | --- |
| O=C(O)CCc1ccc(-c2noc(-c3cn4cc(C(F)(F)F)cc(Cl)c4n3)n2)c(C(F)(F)F)c1 [Entry 8] | ≥ 7.00 |
| NC(Cc1ccc(-c2noc(-c3cn4cc(C(F)(F)F)cc(Cl)c4n3)n2)c(Cl)c1)C(=O)O (stereo not drawn) [Entry 11] | 6.30 to 7.00 |
| O=C(O)CCc1ccc(-c2noc(-c3cn4cc(C(F)(F)F)cc(Cl)c4n3)n2)cc1 [Entry 22] | ≥ 7.00 |
| Cc1cc(-c2noc(-c3cn4cc(C(F)(F)F)cc(Cl)c4n3)n2)ccc1CCC(=O)O [Entry 23] | ≥ 7.00 |
| O=C(O)CCc1cc(Cl)c(-c2noc(-c3cn4cccc(Cl)c4n3)n2)cc1F [Entry 32] | 6.30 to 7.00 |
| Cc1c(Cl)cn2cc(-c3nc(-c4cc(F)c(CCC(=O)O)cc4Cl)no3)nc2c1Cl [Entry 35] | 6.00 to 6.30 |
| O=C(O)C1CC1c1ccc(-c2noc(-c3cn4cc(C(F)(F)F)cc(Cl)c4n3)n2)c(F)c1 (stereo not drawn) [Entry 41] | 6.30 to 7.00 |
| N#Cc1cc(Cl)c2nc(-c3nc(-c4cc(F)c(CCC(=O)O)cc4Cl)no3)cn2c1 [Entry 48] | ≥ 7.00 |
| O=C(O)C(O)COc1ccc(-c2noc(-c3cn4cc(C(F)(F)F)cc(Cl)c4n3)n2)c(Cl)c1 (stereo not drawn) [Entry 57] | ≥ 7.00 |
| O=C(O)CCc1cc(F)c(-c2noc(-c3cn4cc(C(F)(F)F)cc(Cl)c4n3)n2)cc1F [Entry 60] | ≥ 7.00 |
| Cc1c(Br)cc(Br)c2nc(-c3nc(-c4cc(F)c(CCC(=O)O)cc4Cl)no3)cn12 [Entry 62] | ≥ 7.00 |
| Fc1cccc(F)c1-c1nnc(-c2cn3cc(C(F)(F)F)cc(Cl)c3n2)o1 [Entry 66] | 6.00 to 6.30 |
| O=C(O)C1CC1c1ccc(-c2noc(-c3cn4cc(C(F)(F)F)cc(Cl)c4n3)n2)c(C(F)(F)F)c1 (stereo not drawn) [Entry 70] | 6.30 to 7.00 |
| NC(=O)C1CC1c1ccc(-c2noc(-c3cn4cc(C(F)(F)F)cc(Cl)c4n3)n2)c(Cl)c1 (stereo not drawn) [Entry 72] | ≥ 7.00 |
| FC(F)(F)c1cc(Cl)c2nc(-c3nnc(-c4ccccc4Cl)o3)cn2c1 [Entry 73] | ≥ 7.00 |
| O=C(O)C1CC1c1ccc(-c2noc(-c3cn4cc(C(F)(F)F)cc(Cl)c4n3)n2)cc1F (stereo not drawn) [Example 78, 2-(4-{5-[8-chloro-6-(trifluoromethyl)imidazo[1,2-a]pyridin-2-yl]-1,2,4-oxadiazol-3-yl}-2-fluorophenyl)cyclopropanecarboxylic acid] | 6.30 to 7.00 |

| Compound | pEC50 |
| --- | --- |
| CC(Oc1cc(Cl)c(-c2noc(-c3cn4cc(C(F)(F)F)cc(Cl)c4n3)n2)cc1F)C(=O)O (stereo not drawn) [Example 83, 2-[(5-chloro-4-{5-[8-chloro-6-(trifluoromethyl)imidazo[1,2-a]pyridin-2-yl]-1,2,4-oxadiazol-3-yl}-2-fluorophenyl)oxy]propanoic acid] | 6.30 to 7.00 |
| OC[C@H]1C[C@H](Oc2ccc(-c3noc(-c4cn5cc(C(F)(F)F)cc(Cl)c5n4)n3)c(Cl)c2)CN1 [Example 84, {(2R,4S)-4-[(3-chloro-4-{5-[8-chloro-6-(trifluoromethyl)imidazo[1,2-a]pyridin-2-yl]-1,2,4-oxadiazol-3-yl}phenyl)oxy]pyrrolidin-2-yl}methanol] | 6.30 to 7.00 |
| Cc1cc(-c2noc(-c3cn4cc(C(F)(F)F)cc(Cl)c4n3)n2)ccc1C1CC1C(=O)O (stereo not drawn) [Example 86, 2-(4-{5-[8-chloro-6-(trifluoromethyl)imidazo[1,2-a]pyridin-2-yl]-1,2,4-oxadiazol-3-yl}-2-methylphenyl)cyclopropanecarboxylic acid] | 6.30 to 7.00 |
| OC[C@@H]1C[C@H](Oc2ccc(-c3noc(-c4cn5cc(C(F)(F)F)cc(Cl)c5n4)n3)c(Cl)c2)CN1 [Example 87, {(2S,4S)-4-[(3-chloro-4-{5-[8-chloro-6-(trifluoromethyl)imidazo[1,2-a]pyridin-2-yl]-1,2,4-oxadiazol-3-yl}phenyl)oxy]pyrrolidin-2-yl}methanol] | ≥ 7.00 |
| O=C(O)C1CC1c1cc(F)c(-c2noc(-c3cn4cc(C(F)(F)F)cc(Cl)c4n3)n2)cc1F (stereo not drawn) [Example 88, 2-(4-{5-[8-chloro-6-(trifluoromethyl)imidazo[1,2-a]pyridin-2-yl]-1,2,4-oxadiazol-3-yl}-2,5-difluorophenyl)cyclopropanecarboxylic acid] | ≥ 7.00 |
| Nc1ccc(-c2noc(-c3cn4cc(C(F)(F)F)cc(Cl)c4n3)n2)c(Cl)c1 [Example 90, 3-chloro-4-{5-[8-chloro-6-(trifluoromethyl)imidazo[1,2-a]pyridin-2-yl]-1,2,4-oxadiazol-3-yl}aniline] | ≥ 7.00 |
| Cc1cc(-c2noc(-c3cn4cc(C(F)(F)F)cc(Cl)c4n3)n2)cc(C)c1O[C@H](C)CO [Example 91, (2R)-2-[(4-{5-[8-chloro-6-(trifluoromethyl)imidazo[1,2-a]pyridin-2-yl]-1,2,4-oxadiazol-3-yl}-2,6-dimethylphenyl)oxy]propan-1-ol] | ≥ 7.00 |
| O=C(O)CCNc1ccc(-c2noc(-c3cn4cc(C(F)(F)F)cc(Cl)c4n3)n2)c(Cl)c1 [Example 95, N-(3-chloro-4-{5-[8-chloro-6-(trifluoromethyl)imidazo[1,2-a]pyridin-2-yl]-1,2,4-oxadiazol-3-yl}phenyl)-beta-alanine] | 6.30 to 7.00 |
| O=C(O)CNc1ccc(-c2noc(-c3cn4cc(C(F)(F)F)cc(Cl)c4n3)n2)c(Cl)c1 [Example 103, N-(3-chloro-4-{5-[8-chloro-6-(trifluormethyl)imidazo[1,2-a]pyridin-2-yl]-1,2,4-oxadiazol-3-yl}phenyl)glycine] | 6.30 to 7.00 |
| Cc1cc(NS(C)(=O)=O)c(F)cc1-c1noc(-c2cn3cc(C(F)(F)F)cc(Cl)c3n2)n1 [Example 106, N-(4-{5-[8-chloro-6-(trifluoromethyl)imidazo[1,2-a]pyridin-2-yl]-1,2,4-oxadiazol-3-yl}-2-fluoro-5-methylphenyl)methane sulfonamide] | ≥ 7.00 |
| Cc1cc(-c2noc(-c3cn4cc(C(F)(F)F)cc(Cl)c4n3)n2)cc(C)c1O[C@@H](C)CO [Example 107, (2S)-2-[(4-{5-[8-chloro-6-(trifluoromethyl)imidazo[1,2-a]pyridin-2-yl]-1,2,4-oxadiazol-3-yl}-2,6-dimethylphenyl)oxy]propan-1-ol] | ≥ 7.00 |
| CS(=O)(=O)Nc1ccc(-c2noc(-c3cn4cc(C(F)(F)F)cc(Cl)c4n3)n2)cc1F [Example 109, N-(4-{5-[8-chloro-6-(trifluoromethyl)imidazo[1,2-a]pyridin-2-yl]-1,2,4-oxadiazol-3-yl}-2-fluorophenyl)methanesulfonamide] | 6.30 to 7.00 |
| CS(=O)(=O)Nc1cc(Cl)c(-c2noc(-c3cn4cc(C(F)(F)F)cc(Cl)c4n3)n2)cc1F [Example 111, N-(5-chloro-4-{5-[8-chloro-6-(trifluoromethyl)imidazo[1,2-a]pyridin-2-yl]-1,2,4-oxadiazol-3-yl}-2-fluorophenyl)methanesulfonamide] | ≥ 7.00 |
| O=C(O)CN1CCC(Oc2ccc(-c3noc(-c4cn5cc(C(F)(F)F)cc(Cl)c5n4)n3)c(Cl)c2)C1 (stereo not drawn) [Example 112] | ≥ 7.00 |
| CCOC(=O)C(C)Oc1cc(Cl)c(-c2noc(-c3cn4cc(C(F)(F)F)cc(Cl)c4n3)n2)cc1F (stereo not drawn) [Example 113, ethyl 2-[(5-chloro-4-{5-[8-chloro-6-(trifluoromethyl)imidazo[1,2-a]pyridin-2-yl]-1,2,4-oxadiazol-3-yl}-2-fluorophenyl)oxy]propanoate] | ≥ 7.00 |

same assay, conditions: relative EC50 was measured (footnote 1), read-out: Assay 1 Relative EC50

| Compound | pEC50 |
| --- | --- |
| O=C(O)CCc1cc(Cl)c(-c2noc(-c3cn4ccccc4n3)n2)cc1F [Entry 27] | 5.00 to 5.30 |
| C=CCOc1c(C)cc(-c2noc(-c3cn4cc(C(F)(F)F)cc(Cl)c4n3)n2)cc1C [Entry 37] | 5.00 to 5.30 |
| O=C(O)CCc1cc(Cl)c(-c2noc(-c3cn4cc(F)cc(F)c4n3)n2)cc1F [Entry 40] | 5.30 to 6.00 |
| COc1cc2nc(-c3nc(-c4cc(F)c(CCC(=O)O)cc4Cl)no3)cn2cc1Cl [Entry 55] | 5.00 to 5.30 |
| CS(=O)(=O)Nc1cc(Cl)c2nc(-c3nc(-c4cc(F)c(CCC(=O)O)cc4Cl)no3)cn2c1 [Entry 59] | 5.30 to 6.00 |
| O=C(O)CCc1ccc(Nc2nnc(-c3cn4cc(C(F)(F)F)cc(Cl)c4n3)o2)c(Cl)c1 [Entry 74] | 5.00 to 5.30 |
| O=C(O)C1CC1c1ccc(-c2noc(-c3cn4cc(C(F)(F)F)cc(Cl)c4n3)n2)cc1 (stereo not drawn) [Entry 75] | 6.00 to 6.30 |
| CCN(CC)CCS(=O)(=O)Nc1ccc(-c2noc(-c3cn4cc(C(F)(F)F)cc(Cl)c4n3)n2)c(Cl)c1 [Example 108, N-(3-chloro-4-{5-[8-chloro-6-(trifluoromethyl)imidazo[1,2-a]pyridin-2-yl]-1,2,4-oxadiazol-3-yl}phenyl)-2-(diethylamino)ethanesulfonamide] | 5.30 to 6.00 |
